From patent publication US4352928A, “5,6-Alkylenepyrimidine derivative” (Mitsubishi Yuka Pharmaceutical Co., Ltd., priority 1979, dated 1982)
Like-named read-outs stand apart in the source and are kept apart here.

Legend:
[1] = Japanese Patent Provisional Publication No. 35-12079/1960; cited from earlier work
[2] = Japanese Patent Provisional Publication No. 35-12079/1960; cited from earlier work; remark: listed apart in the source
[3] = Biochem. & Biophys. Res. Commu., 34, 495 (1969); cited from earlier work
[4] = tested on: Blood Platelet Aggregation; test: Blood Platelet Aggregation Suppressive Effect (collagen-induced, platelet rich plasma); format: cell-based, rabbit; settings: Oryctolagus cuniculus, 2 min, read-out: Suppressive Ratio
Description: A rabbit was starved for 18 hours, and the veinal blood was taken from the carotid artery of the rabbit. […] The mixture was centrifuged at 200 G for 15 minutes to collect the platelet rich plasma (PRP). The residual portion was further centrifuged at 2000 G for 15 minutes to collect the platelet poor plasma (PPP). Subsequently, 250 μl. of the PRP was placed in a cuvette, and the methanol solution containing the test sample of the concentration set forth in Table 4 was added. Incubation was carried out for 2 minutes, and a collagen solution was added to the incubated solution to result in the final concentration of 3 μg./ml. so as to induce aggregation. The condition of the aggregation was measured in the Aggregation Meter (available from Shenco Co., Ltd.) and recorded.
The suppressive ratio was calculated based on the following equation. [formula] A: Maximum aggregation ratio observed when a solvent only was added. B: Maximum aggregation ratio observed when the test sample was added.

blood sugar level = test: Blood Sugar Level Lowering Effect (2-deoxy-D-glucose induced high blood sugar level); format: in vivo, ICR-JCL mouse, male; settings: po, mouse, 1 hour after 2-deoxy-D-glucose 500 mg/kg, read-out: Suppressive Ratio; for inhibition in vivo at 30 mg/kg: 30 mg/kg p.o.
Description: To a ICR-JCL mouse, male, having the weight ranging from 25 to 30 g. was orally administered the test sample and, after 15 minutes, 2-deoxy-D-glucose was administered into the cavity of the mouse in the amount of 500 mg/kg to induce a high blood sugar level. The blood was taken after 1 hour, and the blood sugar concentration was determined in the blood serum obtained upon centrifugation, by means of a commercially available test kit (trade name: Glucomesser, produced by Tokyo Zooki Kagaku Co., Ltd., Japan). The suppressive ratio was calculated based on the following equation. [formula] A: Blood sugar level of the positive control group B: Blood sugar level of the negative control group
C: Blood sugar level of the test sample administered group

inflammation = test: Anti-Inflammatory Effect (carrageenan-induced swelling of the hind foot); format: in vivo, Wister male rat; settings: po, rat, 3 hours after carrageenan, read-out: Suppressive Ratio; for inhibition in vivo at 50 mg/kg: 50 mg/kg p.o.
Description: A Wister male rat having the weight ranging from 120 to 150 g. was starved for 18 hours, and to this was then orally administered the test sample. After lapse of one hour, 0.05 ml. of 1% solution of carrageenan was administered through subcutaneous injection in the plantar surface of the right hind foot to produce inflammation. The volume of the right hind foot was measured prior to the injection of carrageenan and again at 3 hours after the administration through injection. The ratio of the increase of the foot volume was calculated to express in percent based on the measured values. The so calculated ratio was compared with the calculated ratio on the control data to give the dropsical swelling suppressive ratio.

blood pressure = test: Anti-Hypertensive Effect (spontaneously hipertensive rat); format: in vivo, male; settings: SHR
Description: To a spontaneously hipertensive rat (SHR), male, aged 20-30 weeks, blood pressure under contraction 150 mmHg. was orally administered the test sample. The mean blood pressure of the rat was measured under non-anesthetic conditions at 1, 3, 6 and 24 hours after the administration via cannula inserted into the main artery in the abdomen.

ICR-JCL mouse = test: Acute Toxicity on Mouse; parameters: species or system male; settings: in vivo, po
Description: A ICR-JCL mouse, male, was starved for 18 hours, and to the mouse was orally administered the test sample suspended in 1% tragacantha solution. The condition was observed during one week after the administration and the LD50 was calculated.

[5] = 100 μM, rabbit PRP, collagen 3 μg/ml

For `Nc1nc(N)c2c(n1)CCCC2` [2,4-diamino-5,6-tetramethylenepyrimidine], the antibacterial activity [1] is listed as “antibacterial activity”, the carcinostatic effect [2] is listed as “has a carcinostatic effect” and the antagonism against pteridine [3] is listed as “has antagonism against pteridine”.

Work on `CC(=O)Oc1ccccc1C(=O)O` [Aspirin, reference compound] yielded an inhibition at 100 µM [4] of 100%.

`Nc1nc(N2CCNCC2)nc2c1CCCC2` [Compound No. 1, 2-Piperazino-4-amino-5,6-tetramethylenepyrimidine] showed an inhibition at 100 µM [4, 5] of 100% and an inhibition in vivo at 30 mg/kg (blood sugar level) of 67.8%.

Compound `Nc1nc(N2CCN(Cc3ccccc3)CC2)nc2c1CCCC2` [Compound No. 3, 2-(4-Benzylpiperazino)-4-amino-5,6-tetramethylenepyrimidine] has an inhibition in vivo at 50 mg/kg (inflammation) of 46%.

`C=CCN1CCN(c2nc(N)c3c(n2)CCCC3)CC1` [Compound No. 4, 2-(4-Allylpiperazino)-4-amino-5,6-tetramethylenepyrimidine] gave an inhibition in vivo at 50 mg/kg (inflammation) of 51.2%.

For `Nc1nc(N2CCN(C(=O)C=Cc3ccccc3)CC2)nc2c1CCCC2` [Compound No. 10, 2-(4-Cinnamoylpiperazino)-4-amino-5,6-tetramethylenepyrimidine], the inhibition in vivo at 50 mg/kg (inflammation) was 79.9% and the “Change of Blood Pressure at 3 Hours after Administration” value (shortened to “Change of Blood Pressure at 3 Hours”) (blood pressure; 25 mg/kg p.o.) was -22 mmHg.

Compound `Nc1nc(N2CCN(C(=O)C=Cc3ccco3)CC2)nc2c1CCCC2` [Compound No. 14, 2-[4-{3-(Furan-2-yl)acryloyl}piperazino]-4-amino-5,6-tetramethylenepyrimidine] has an inhibition in vivo at 25 mg/kg (inflammation; 25 mg/kg p.o.) of 53.9% and an inhibition in vivo at 30 mg/kg (blood sugar level) of 60.2%.

With `Nc1nc(N2CCN(C(=O)Nc3ccccc3)CC2)nc2c1CCCC2` [Compound No. 18, 2-(4-Phenylcarbamoylpiperazino)-4-amino-5,6-tetramethylenepyrimidine] the inhibition in vivo at 50 mg/kg (inflammation) was 33.8% and the “Change of Blood Pressure at 3 Hours” value (blood pressure; 50 mg/kg p.o.) was -17 mmHg.

In the case of `Nc1nc(N2CCN(c3ccccn3)CC2)nc2c1CCCC2` [Compound No. 32, 2-[4-(2-Pyridyl)piperazino]-4-amino-5,6-tetramethylenepyrimidine], the “Change of Blood Pressure at 3 Hours” value (blood pressure; 50 mg/kg p.o.) is reported as -18 mmHg and the inhibition in vivo at 30 mg/kg (blood sugar level) is reported as 60.1%.

Work on `CNc1nc(N2CCNCC2)nc2c1CCCC2` [Compound No. 35, 2-Piperazino-4-methylamino-5,6-tetramethylenepyrimidine] yielded an inhibition at 100 µM [4, 5] of 87.7% and an inhibition in vivo at 30 mg/kg (blood sugar level) of 77.4%.

`Nc1nc(N2CCNCC2)nc2c1CCC2` [Compound No. 54, 2-Piperazino-4-amino-5,6-trimethylenepyrimidine] showed an inhibition in vivo at 30 mg/kg (blood sugar level) of 107%.

With `Nc1nc(N2CCN(Cc3ccccc3)CC2)nc2c1CCC2` [Compound No. 56, 2-(4-Benzylpiperazino)-4-amino-5,6-trimethylenepyrimidine] the inhibition in vivo at 30 mg/kg (blood sugar level) was 44.5%.

For `Nc1nc(N2CCNCC2)nc2c1CCCCC2` [Compound No. 63, 2-Piperazino-4-amino-5,6-pentamethylenepyrimidine], the inhibition in vivo at 30 mg/kg (blood sugar level) was 78.9%.

In the case of `Nc1nc(N2CCN(C(=O)C=Cc3ccccc3[N+](=O)[O-])CC2)nc2c1CCCC2` [compound 11, 2-[4-(2-Nitrocinnamoyl)piperazino]-4-amino-5,6-tetramethylenepyrimidine], the “Change of Blood Pressure at 3 Hours” value (blood pressure; 50 mg/kg p.o.) is reported as -17 mmHg.

Work on `Nc1nc(N2CCN(C(=S)Nc3ccccc3)CC2)nc2c1CCCC2` [compound 23, 2-(Phenylthiocarbamoylpiperazino)-4-amino-5,6-tetramethylenepyrimidine] yielded an inhibition in vivo at 50 mg/kg (inflammation) of 23.9%.

With `Nc1nc(N2CCN(c3ccccc3)CC2)nc2c1CCCC2` [compound 28, 2-(4-Phenylpiperazino)-4-amino-5,6-tetramethylenepyrimidine] the inhibition in vivo at 50 mg/kg (inflammation) was 52.7%.

`Nc1nc(N2CCN(c3ccc(Cl)cc3)CC2)nc2c1CCCC2` [compound 29, 2-[4-(4-Chlorophenyl)piperazino]-4-amino-5,6-tetramethylenepyrimidine] gave an inhibition in vivo at 50 mg/kg (inflammation) of 46.8% and an inhibition in vivo at 10 mg/kg (blood sugar level; 10 mg/kg p.o.) of 49.1%.

For `CN(C)c1nc(N2CCNCC2)nc2c1CCCC2` [compound 41, 2-Piperazino-4-dimethylamino-5,6-tetramethylenepyrimidine], the inhibition in vivo at 30 mg/kg (blood sugar level) was 50.8%.

In the case of `C1CCc2c(nc(N3CCNCC3)nc2N2CCCC2)C1` [compound 45, 2-Piperazino-4-pyrrolidino-5,6-tetramethylenepyrimidine], the inhibition at 30 µM ([4]; rabbit PRP, collagen 3 μg/ml) is reported as 72%.

In the case of `CN1CCN(c2nc3c(c(N4CCCC4)n2)CCCC3)CC1` [compound 46, 2-(4-Methylpiperazino)-4-pyrrolidino-5,6-tetramethylenepyrimidine], the inhibition at 30 µM ([4]; rabbit PRP, collagen 3 μg/ml) is reported as 100%.

Compound `O=CN1CCN(c2nc3c(c(N4CCOCC4)n2)CCCC3)CC1` [compound 47, 2-(4-Formylpiperazino)-4-morpholino-5,6-tetramethylenepyrimidine] has an inhibition at 30 µM ([4]; rabbit PRP, collagen 3 μg/ml) of 100%.

For `C1CCc2c(nc(N3CCNCC3)nc2N2CCOCC2)C1` [compound 48, 2-Piperazino-4-morpholino-5,6-tetramethylenepyrimidine], the inhibition at 30 µM ([4]; rabbit PRP, collagen 3 μg/ml) was 46% and the inhibition in vivo at 30 mg/kg (blood sugar level) was 95.9%.

With `CN1CCN(c2nc3c(c(N4CCOCC4)n2)CCCC3)CC1` [compound 49, 2-(4-Methylpiperazino)-4-morpholino-5,6-tetramethylenepyrimidine] the LD50 (ICR-JCL mouse) was > 500 mg/kg and the inhibition at 30 µM ([4]; rabbit PRP, collagen 3 μg/ml) was 95.2%.

`OCCNc1nc(N2CCNCC2)nc2c1CCCC2` [compound 51, 2-Piperazino-4-(2-hydroxyethyl)amino-5,6-tetramethylenepyrimidine] gave an inhibition at 100 µM [4, 5] of 89.1%.
